Measured values published in ChEMBL document CHEMBL4804284.

Assays:
Set-up in all cases: scale not given: the % may be the effect or the level left
[1] = molecular target: Ephrin type-A receptor 6 (Homo sapiens) (UniProt Q9UF33); test: Inhibition of DNA-tagged human EPHA6 assessed as percent of control at 50000 nM by qPCR analysis relative to control
[2] = system: Epidermal growth factor receptor (Homo sapiens), P00533 [G719S]; test: Inhibition of DNA-tagged human EGFR G719S assessed as percent of control at 50000 nM by qPCR analysis relative to control
[3] = molecular target: Serine/threonine-protein kinase 17B (Homo sapiens) (UniProt O94768); test: Inhibition of DNA-tagged human DRAK2 assessed as percent of control at 50000 nM by qPCR analysis relative to control
[4] = molecular target: Death-associated protein kinase 1 (Homo sapiens) (UniProt P53355); test: Inhibition of DNA-tagged human DAPK1 assessed as percent of control at 50000 nM by qPCR analysis relative to control
[5] = molecular target: Casein kinase II subunit alpha' (Homo sapiens) (UniProt P19784); test: Inhibition of DNA-tagged human CSNK2A2 assessed as percent of control at 50000 nM by qPCR analysis relative to control
[6] = molecular target: Macrophage colony-stimulating factor 1 receptor (Homo sapiens) (UniProt P07333); test: Inhibition of DNA-tagged human CSF1R assessed as percent of control at 50000 nM by qPCR analysis relative to control
[7] = molecular target: Tyrosine-protein kinase BTK (Homo sapiens) (UniProt Q06187); test: Inhibition of DNA-tagged human BTK assessed as percent of control at 50000 nM by qPCR analysis relative to control
[8] = molecular target: Bone morphogenetic protein receptor type-1A (Homo sapiens) (UniProt P36894); test: Inhibition of DNA-tagged human BMPR1A assessed as percent of control at 50000 nM by qPCR analysis relative to control
[9] = molecular target: Tyrosine-protein kinase ABL2 (Homo sapiens) (UniProt P42684); test: Inhibition of DNA-tagged human ABL2 assessed as percent of control at 50000 nM by qPCR analysis relative to control
[10] = system: Tyrosine-protein kinase ABL1 (Homo sapiens), P00519 [Y253F]; test: Inhibition of DNA-tagged phosphorylated human ABL1 Y253F mutant assessed as percent of control at 50000 nM by qPCR analysis relative to control
[11] = system: Tyrosine-protein kinase ABL1 (Homo sapiens), P00519 [F317L]; test: Inhibition of DNA-tagged phosphorylated human ABL1 F317L mutant assessed as percent of control at 50000 nM by qPCR analysis relative to control
[12] = system: Mast/stem cell growth factor receptor Kit (Homo sapiens), P10721 [V559D,V654A]; test: Inhibition of DNA-tagged human KIT V559D/V654A double mutant assessed as percent of control at 50000 nM by qPCR analysis relative to control
[13] = molecular target: Mitogen-activated protein kinase kinase kinase 2 (Homo sapiens) (UniProt Q9Y2U5); test: Inhibition of DNA-tagged human MAP3K2 assessed as percent of control at 50000 nM by qPCR analysis relative to control
[14] = molecular target: Mitogen-activated protein kinase kinase kinase kinase 5 (Homo sapiens) (UniProt Q9Y4K4); test: Inhibition of DNA-tagged human MAP4K5 assessed as percent of control at 50000 nM by qPCR analysis relative to control
[15] = molecular target: MAP/microtubule affinity-regulating kinase 4 (Homo sapiens) (UniProt Q96L34); test: Inhibition of DNA-tagged human MARK4 assessed as percent of control at 50000 nM by qPCR analysis relative to control
[16] = molecular target: Maternal embryonic leucine zipper kinase (Homo sapiens) (UniProt Q14680); test: Inhibition of DNA-tagged human MELK assessed as percent of control at 50000 nM by qPCR analysis relative to control
[17] = molecular target: Hepatocyte growth factor receptor (Homo sapiens) (UniProt P08581); test: Inhibition of DNA-tagged human MET assessed as percent of control at 50000 nM by qPCR analysis relative to control
[18] = molecular target: Mitogen-activated protein kinase kinase kinase 9 (Homo sapiens) (UniProt P80192); test: Inhibition of DNA-tagged human MLK1 assessed as percent of control at 50000 nM by qPCR analysis relative to control
[19] = molecular target: Serine/threonine-protein kinase MRCK beta (Homo sapiens) (UniProt Q9Y5S2); test: Inhibition of DNA-tagged human MRCKB assessed as percent of control at 50000 nM by qPCR analysis relative to control
[20] = molecular target: Serine/threonine-protein kinase Nek4 (Homo sapiens) (UniProt P51957); test: Inhibition of DNA-tagged human NEK4 assessed as percent of control at 50000 nM by qPCR analysis relative to control
[21] = molecular target: Phosphorylase b kinase gamma catalytic chain, skeletal muscle/heart isoform (Homo sapiens) (UniProt Q16816); test: Inhibition of DNA-tagged human PHKG1 assessed as percent of control at 50000 nM by qPCR analysis relative to control
[22] = molecular target: Serine/threonine-protein kinase pim-3 (Homo sapiens) (UniProt Q86V86); test: Inhibition of DNA-tagged human PIM3 assessed as percent of control at 50000 nM by qPCR analysis relative to control
[23] = molecular target: Phosphatidylinositol 4-phosphate 5-kinase type-1 alpha (Homo sapiens) (UniProt Q99755); test: Inhibition of DNA-tagged human PIP5K1A assessed as percent of control at 50000 nM by qPCR analysis relative to control
[24] = molecular target: Protein kinase C iota type (Homo sapiens) (UniProt P41743); test: Inhibition of DNA-tagged human PRKCI assessed as percent of control at 50000 nM by qPCR analysis relative to control
[25] = molecular target: Serine/threonine-protein kinase RIO1 (Homo sapiens) (UniProt Q9BRS2); test: Inhibition of DNA-tagged human RIOK1 assessed as percent of control at 50000 nM by qPCR analysis relative to control
[26] = molecular target: Ribosomal protein S6 kinase alpha-4 (Homo sapiens) (UniProt O75676); test: Inhibition of DNA-tagged human N-terminal RPS6KA4 kinase domain assessed as percent of control at 50000 nM by qPCR analysis relative to control
[27] = molecular target: Serine/threonine-protein kinase SIK2 (Homo sapiens) (UniProt Q9H0K1); test: Inhibition of DNA-tagged human SIK2 assessed as percent of control at 50000 nM by qPCR analysis relative to control
[28] = molecular target: Tyrosine-protein kinase SYK (Homo sapiens) (UniProt P43405); test: Inhibition of DNA-tagged human SYK assessed as percent of control at 50000 nM by qPCR analysis relative to control
[29] = molecular target: Tyrosine-protein kinase receptor Tie-1 (Homo sapiens) (UniProt P35590); test: Inhibition of DNA-tagged human TIE1 assessed as percent of control at 50000 nM by qPCR analysis relative to control

Chain of Maternal embryonic leucine zipper kinase (Homo sapiens) (Q14680 whole entry, looked up): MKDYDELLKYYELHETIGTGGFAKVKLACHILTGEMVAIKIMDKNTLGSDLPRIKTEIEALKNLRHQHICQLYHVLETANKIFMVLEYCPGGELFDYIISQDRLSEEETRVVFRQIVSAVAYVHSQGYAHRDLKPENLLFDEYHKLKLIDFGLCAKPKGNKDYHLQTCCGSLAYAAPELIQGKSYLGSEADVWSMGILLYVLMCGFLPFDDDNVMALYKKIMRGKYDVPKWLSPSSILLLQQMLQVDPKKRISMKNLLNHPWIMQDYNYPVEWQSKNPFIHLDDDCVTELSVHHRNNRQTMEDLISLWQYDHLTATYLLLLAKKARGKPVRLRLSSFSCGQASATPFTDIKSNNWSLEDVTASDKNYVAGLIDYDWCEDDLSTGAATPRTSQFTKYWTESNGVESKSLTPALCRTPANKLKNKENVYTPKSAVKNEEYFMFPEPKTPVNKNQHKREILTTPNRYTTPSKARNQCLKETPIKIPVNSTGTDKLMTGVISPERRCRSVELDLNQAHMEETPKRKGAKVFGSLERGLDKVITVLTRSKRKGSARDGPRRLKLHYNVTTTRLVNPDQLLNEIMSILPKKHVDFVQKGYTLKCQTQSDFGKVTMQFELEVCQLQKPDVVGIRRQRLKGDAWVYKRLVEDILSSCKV
Chain of Ribosomal protein S6 kinase alpha-4 (Homo sapiens) (O75676 whole entry, looked up, the tested form may be a part): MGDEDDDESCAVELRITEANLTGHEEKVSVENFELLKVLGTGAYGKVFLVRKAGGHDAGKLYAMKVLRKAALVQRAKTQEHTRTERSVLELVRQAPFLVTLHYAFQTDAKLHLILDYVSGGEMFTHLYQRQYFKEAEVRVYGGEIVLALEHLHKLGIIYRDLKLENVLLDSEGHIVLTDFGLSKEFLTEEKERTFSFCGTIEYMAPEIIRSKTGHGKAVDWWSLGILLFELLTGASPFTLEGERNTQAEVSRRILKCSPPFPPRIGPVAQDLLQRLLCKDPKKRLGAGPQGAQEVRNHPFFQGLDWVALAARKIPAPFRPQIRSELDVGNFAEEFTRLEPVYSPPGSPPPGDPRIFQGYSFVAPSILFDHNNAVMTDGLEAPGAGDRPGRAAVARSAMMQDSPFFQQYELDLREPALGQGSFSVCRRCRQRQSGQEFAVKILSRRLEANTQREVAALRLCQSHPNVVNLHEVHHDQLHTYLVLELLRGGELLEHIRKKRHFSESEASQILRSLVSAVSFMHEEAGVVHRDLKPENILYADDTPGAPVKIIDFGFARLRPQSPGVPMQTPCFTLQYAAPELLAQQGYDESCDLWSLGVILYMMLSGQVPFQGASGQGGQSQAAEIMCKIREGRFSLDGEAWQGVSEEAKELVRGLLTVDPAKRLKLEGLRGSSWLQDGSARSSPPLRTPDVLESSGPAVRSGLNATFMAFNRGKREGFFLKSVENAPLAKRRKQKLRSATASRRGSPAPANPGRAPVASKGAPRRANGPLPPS
Chain of Tyrosine-protein kinase ABL2 (Homo sapiens) (P42684 whole entry): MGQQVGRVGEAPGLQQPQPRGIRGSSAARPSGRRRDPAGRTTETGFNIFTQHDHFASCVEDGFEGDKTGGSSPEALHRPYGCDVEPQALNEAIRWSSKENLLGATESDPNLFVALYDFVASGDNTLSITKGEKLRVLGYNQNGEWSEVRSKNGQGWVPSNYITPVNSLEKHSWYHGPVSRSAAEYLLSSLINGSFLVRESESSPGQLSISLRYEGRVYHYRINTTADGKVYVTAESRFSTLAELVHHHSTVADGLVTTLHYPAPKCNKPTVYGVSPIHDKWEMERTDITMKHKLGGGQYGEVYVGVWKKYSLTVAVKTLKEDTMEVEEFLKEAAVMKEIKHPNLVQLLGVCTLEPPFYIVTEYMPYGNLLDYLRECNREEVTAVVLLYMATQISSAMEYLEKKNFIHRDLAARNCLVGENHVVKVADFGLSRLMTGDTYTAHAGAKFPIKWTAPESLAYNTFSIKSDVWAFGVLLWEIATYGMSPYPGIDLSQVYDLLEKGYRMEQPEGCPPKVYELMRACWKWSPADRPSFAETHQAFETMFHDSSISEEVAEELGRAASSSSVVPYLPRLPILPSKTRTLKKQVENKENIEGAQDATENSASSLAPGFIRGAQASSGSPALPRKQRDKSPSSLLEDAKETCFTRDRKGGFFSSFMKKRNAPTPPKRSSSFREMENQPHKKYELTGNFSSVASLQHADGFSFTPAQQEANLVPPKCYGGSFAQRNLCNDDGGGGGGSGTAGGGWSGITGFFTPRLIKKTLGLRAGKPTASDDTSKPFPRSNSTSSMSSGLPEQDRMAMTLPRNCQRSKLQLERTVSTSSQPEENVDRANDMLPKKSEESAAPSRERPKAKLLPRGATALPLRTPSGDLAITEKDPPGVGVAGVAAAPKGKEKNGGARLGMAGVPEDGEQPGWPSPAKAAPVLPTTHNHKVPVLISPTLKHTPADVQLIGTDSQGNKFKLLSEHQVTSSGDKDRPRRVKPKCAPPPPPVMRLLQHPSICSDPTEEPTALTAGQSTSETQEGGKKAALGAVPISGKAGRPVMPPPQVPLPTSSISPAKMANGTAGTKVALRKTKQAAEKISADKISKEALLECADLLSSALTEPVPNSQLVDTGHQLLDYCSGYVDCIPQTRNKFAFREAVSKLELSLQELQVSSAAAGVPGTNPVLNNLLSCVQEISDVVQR
Chain of Macrophage colony-stimulating factor 1 receptor (Homo sapiens) (P07333 whole entry): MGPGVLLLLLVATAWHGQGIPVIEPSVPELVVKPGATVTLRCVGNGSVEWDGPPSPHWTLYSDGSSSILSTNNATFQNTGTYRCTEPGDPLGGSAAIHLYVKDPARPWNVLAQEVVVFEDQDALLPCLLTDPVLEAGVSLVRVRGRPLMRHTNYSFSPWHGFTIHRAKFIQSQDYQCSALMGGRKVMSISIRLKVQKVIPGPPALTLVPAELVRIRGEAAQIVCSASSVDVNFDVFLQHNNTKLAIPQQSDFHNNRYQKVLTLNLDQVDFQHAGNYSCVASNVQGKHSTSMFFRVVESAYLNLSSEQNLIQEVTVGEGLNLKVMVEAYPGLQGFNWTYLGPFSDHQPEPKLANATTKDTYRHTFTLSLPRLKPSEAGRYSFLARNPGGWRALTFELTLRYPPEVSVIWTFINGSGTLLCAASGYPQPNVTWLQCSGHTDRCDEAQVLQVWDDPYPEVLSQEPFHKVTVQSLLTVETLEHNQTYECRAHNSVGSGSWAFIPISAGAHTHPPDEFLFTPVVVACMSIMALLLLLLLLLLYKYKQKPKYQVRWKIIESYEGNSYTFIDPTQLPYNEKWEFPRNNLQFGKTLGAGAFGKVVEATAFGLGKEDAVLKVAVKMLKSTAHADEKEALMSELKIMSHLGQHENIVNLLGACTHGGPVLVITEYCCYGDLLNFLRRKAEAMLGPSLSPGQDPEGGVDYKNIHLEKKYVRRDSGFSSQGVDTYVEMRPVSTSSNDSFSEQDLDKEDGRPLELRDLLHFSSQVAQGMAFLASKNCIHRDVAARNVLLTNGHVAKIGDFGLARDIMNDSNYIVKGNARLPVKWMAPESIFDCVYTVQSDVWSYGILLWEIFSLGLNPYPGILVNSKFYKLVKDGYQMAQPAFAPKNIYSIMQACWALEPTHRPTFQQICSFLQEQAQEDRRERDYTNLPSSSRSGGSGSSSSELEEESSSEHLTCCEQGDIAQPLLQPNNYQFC
Chain of Serine/threonine-protein kinase SIK2 (Homo sapiens) (Q9H0K1 whole entry, looked up): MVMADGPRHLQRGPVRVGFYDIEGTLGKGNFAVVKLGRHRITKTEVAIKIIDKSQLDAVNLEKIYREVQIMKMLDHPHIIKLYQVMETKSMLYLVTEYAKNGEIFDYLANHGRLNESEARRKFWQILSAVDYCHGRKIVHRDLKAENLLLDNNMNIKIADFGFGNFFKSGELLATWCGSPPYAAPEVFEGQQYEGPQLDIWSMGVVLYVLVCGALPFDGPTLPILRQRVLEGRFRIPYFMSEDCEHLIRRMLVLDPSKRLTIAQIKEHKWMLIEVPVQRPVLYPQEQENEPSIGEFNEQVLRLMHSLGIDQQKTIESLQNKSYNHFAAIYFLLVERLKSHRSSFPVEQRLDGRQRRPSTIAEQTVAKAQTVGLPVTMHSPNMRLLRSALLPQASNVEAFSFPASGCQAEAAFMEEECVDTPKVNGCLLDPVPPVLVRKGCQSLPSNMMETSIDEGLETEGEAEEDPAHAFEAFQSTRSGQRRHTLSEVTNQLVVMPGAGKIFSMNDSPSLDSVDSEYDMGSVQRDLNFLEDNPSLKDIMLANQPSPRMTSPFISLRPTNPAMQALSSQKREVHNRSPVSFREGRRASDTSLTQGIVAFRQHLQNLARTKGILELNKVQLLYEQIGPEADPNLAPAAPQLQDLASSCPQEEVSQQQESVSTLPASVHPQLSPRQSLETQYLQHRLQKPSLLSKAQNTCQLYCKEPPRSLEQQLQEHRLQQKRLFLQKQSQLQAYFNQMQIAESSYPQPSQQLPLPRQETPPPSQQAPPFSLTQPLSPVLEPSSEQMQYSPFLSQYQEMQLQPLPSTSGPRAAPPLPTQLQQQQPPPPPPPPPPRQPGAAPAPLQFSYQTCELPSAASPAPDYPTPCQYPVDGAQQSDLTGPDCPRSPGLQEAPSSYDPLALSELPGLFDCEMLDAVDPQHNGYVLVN
Chain of Protein kinase C iota type (Homo sapiens) (P41743 whole entry): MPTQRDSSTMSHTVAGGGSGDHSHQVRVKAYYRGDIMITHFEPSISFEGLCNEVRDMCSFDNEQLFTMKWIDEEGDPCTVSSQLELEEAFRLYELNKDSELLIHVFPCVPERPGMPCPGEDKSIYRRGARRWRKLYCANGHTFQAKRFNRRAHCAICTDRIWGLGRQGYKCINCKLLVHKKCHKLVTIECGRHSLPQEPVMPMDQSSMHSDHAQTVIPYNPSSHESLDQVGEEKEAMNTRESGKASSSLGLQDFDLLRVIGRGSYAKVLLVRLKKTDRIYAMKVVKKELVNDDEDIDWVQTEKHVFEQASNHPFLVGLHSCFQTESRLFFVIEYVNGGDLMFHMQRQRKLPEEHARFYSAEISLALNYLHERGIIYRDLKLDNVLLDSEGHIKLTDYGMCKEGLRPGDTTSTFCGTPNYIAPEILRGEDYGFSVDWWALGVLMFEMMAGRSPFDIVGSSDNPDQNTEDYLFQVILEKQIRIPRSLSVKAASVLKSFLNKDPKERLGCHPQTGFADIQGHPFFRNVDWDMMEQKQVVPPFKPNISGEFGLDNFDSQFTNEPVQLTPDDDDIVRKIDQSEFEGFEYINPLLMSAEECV

`CN1C(=O)/C(=C2/C(=O)Nc3ccccc32)c2ccccc21` was tested, and the Activity [1] was 95%, the Activity [2] was 94% and the Activity [3] was 100%. The Activity [4] was 86%, the Activity [5] was 82% and the Activity [6] was 98%. The Activity [7] was 82%, the Activity [8] was 100% and the Activity [9] was 89%. For the same compound, the Activity [10] was 100%, the Activity [11] was 81% and the Activity [12] was 100%. The Activity [13] was 99%, the Activity [14] was 100% and the Activity [15] was 77%. The Activity [16] was 83%, the Activity [17] was 100% and the Activity [18] was 100%. The Activity [19] was 83%, the Activity [20] was 86% and the Activity [21] was 97%. It also gave an Activity [22] of 79%, an Activity [23] of 100% and an Activity [24] of 100%. For the same compound, the Activity [25] was 87%, the Activity [26] was 82% and the Activity [27] was 95%. For the same compound, the Activity [28] was 85% and the Activity [29] was 88%.
